Activity calls are given as the source filed them. No cut-off for these calls is given here.
Assays:
[1] = Binding affinity to adrenergic alpha receptor by radioligand binding assay
[2] = molecular target: 5-hydroxytryptamine receptor 2B (Homo sapiens, UniProt P41595); assay: Binding affinity to 5HT2B receptor by radioligand binding assay
[3] = Half life in Beagle dog at 3 mg/kg, po; assay type: ADME, organism-based, Canis lupus familiaris; design: dose 3 mg/kg, route oral; settings: in vivo
Homo sapiens = species on record: Homo sapiens; assay: Transient increase in prolactin level in human serum at greater than 30 mg; assay type: functional, organism-based
[4] = Half life in human liver S9 fraction at 5 uM; assay type: ADME
[5] = Binding affinity to galanin receptor by radioligand binding assay
[6] = molecular target: Opioid receptors; mu/kappa/delta (Homo sapiens, UniProt P41145+P41143+P35372); assay: Binding affinity to opioid receptor by radioligand binding assay; assay type: protein assay
Nociceptin receptor = Nociceptin receptor (Homo sapiens, UniProt P41146); assay: Binding affinity to orphanin receptor by radioligand binding assay
[7] = molecular target: Muscarinic acetylcholine receptor; assay: Binding affinity to muscarinic receptor by radioligand binding assay; assay type: protein assay
[8] = Oral bioavailability in Sprague-Dawley rat at 3 mg/kg, po and 1 mg/kg, iv; assay type: ADME, organism-based; settings: in vivo
[9] = Binding affinity to vasoactive intestinal peptide receptor by radioligand binding assay
[10] = molecular target: 5-hydroxytryptamine receptor 4 (Homo sapiens, UniProt Q13639); assay: Binding affinity to human 5HT4e receptor by radioligand binding assay
[11] = molecular target: 5-hydroxytryptamine receptor 1B (Rattus norvegicus, UniProt P28564); assay: Binding affinity to 5HT1B receptor in rat cerebral cortex by radioligand binding assay; assay type: tissue-based
[12] = molecular target: Sodium-dependent dopamine transporter (Homo sapiens, UniProt Q01959); assay: Binding affinity to dopamine transporter by radioligand binding assay
[13] = molecular target: GABA-A receptor; anion channel; assay: Binding affinity to GABA receptor by radioligand binding assay; assay type: protein-complex assay
[14] = molecular target: Voltage-gated inwardly rectifying potassium channel KCNH2 (Homo sapiens, UniProt Q12809); assay: Inhibition of hERG potassium channel in HEK293 cells by patch clamp assay
[15] = molecular target: 5-hydroxytryptamine receptor 7 (Homo sapiens, UniProt P34969)
Description: Binding affinity to 5HT7 receptor by radioligand binding assay

[16] = Toxicity in po dosed Sprague-Dawley rat; assay type: organism-based; settings: in vivo
[17] = Protein binding in human serum at 2 uM; assay type: ADME, organism-based; settings: read-out: PPB (converted)
[18] = Binding affinity to sodium channel by radioligand binding assay
[19] = Toxicity in po dosed Beagle dog; assay type: organism-based, Canis lupus familiaris; settings: in vivo
[20] = molecular target: 5-hydroxytryptamine receptor 6 (Homo sapiens, UniProt P50406); assay: Binding affinity to human 5HT6 receptor by radioligand binding assay
[21] = Terminal half life in human; assay type: ADME, organism-based; settings: in vivo
Cytochrome P450 1A2 = Cytochrome P450 1A2 (Homo sapiens, UniProt P05177); assay: Inhibition of human recombinant cytochrome P450 1A2; assay type: ADME; settings: recombinant enzyme
[22] = Binding affinity to neurokinin receptor by radioligand binding assay
[23] = Binding affinity to histamine receptor by radioligand binding assay
hERG (KCNH2) = hERG (KCNH2) (Homo sapiens, UniProt Q12809); assay: Inhibition of hERG potassium channel in HEK293 cells by patch clamp assay at 1 uM; settings: HEK293 cells that express hERG
[24] = molecular target: 5-hydroxytryptamine receptor 1A (Rattus norvegicus, UniProt P19327); assay: Binding affinity to 5HT1A receptor in rat cerebral cortex by radioligand binding assay; assay type: tissue-based
[25] = molecular target: T1, Alpha-2A adrenergic receptor (Rattus norvegicus) (UniProt P22909); assay: Displacement of [3H]RX 821002 from Adrenergic alpha-2a receptor in rat cerebral cortex cells at 1 uM; assay type: cell-based
T1 sequence (whole entry): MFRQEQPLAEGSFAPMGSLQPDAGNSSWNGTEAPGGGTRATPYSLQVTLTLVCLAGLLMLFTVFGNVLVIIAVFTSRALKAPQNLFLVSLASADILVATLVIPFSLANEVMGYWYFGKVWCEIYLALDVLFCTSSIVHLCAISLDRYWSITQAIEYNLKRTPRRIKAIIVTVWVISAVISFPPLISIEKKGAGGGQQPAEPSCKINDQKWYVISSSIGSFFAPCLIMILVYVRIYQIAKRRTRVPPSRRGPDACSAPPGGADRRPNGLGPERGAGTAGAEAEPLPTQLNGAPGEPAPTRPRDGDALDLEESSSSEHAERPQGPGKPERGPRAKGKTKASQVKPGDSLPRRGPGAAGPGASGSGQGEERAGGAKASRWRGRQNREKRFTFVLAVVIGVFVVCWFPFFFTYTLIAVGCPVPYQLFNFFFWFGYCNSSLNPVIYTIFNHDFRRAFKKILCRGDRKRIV

Cytochrome P450 3A4 = Cytochrome P450 3A4 (Homo sapiens, UniProt P08684); assay: Inhibition of human recombinant cytochrome P450 3A4; assay type: ADME; settings: recombinant enzyme
[26] = Binding affinity to melanocortin receptor by radioligand binding assay
Angiotensin II receptor = Angiotensin II receptor (Homo sapiens, UniProt P30556+P50052); assay: Binding affinity to angiotensin2 receptor by radioligand binding assay; assay type: protein assay
[27] = Binding affinity to neurotensin receptor by radioligand binding assay
Cytochrome P450 2C9 = Cytochrome P450 2C9 (Homo sapiens, UniProt P11712); assay: Inhibition of human recombinant cytochrome P450 2C9; assay type: ADME; settings: recombinant enzyme
Cytochrome P450 2D6 = Cytochrome P450 2D6 (Homo sapiens, UniProt P10635); assay: Inhibition of human recombinant cytochrome P450 2D6; assay type: ADME; settings: recombinant enzyme
Mus musculus [28] = assay: Decrease in basal rectal temperature in stress-induced hyperthermic 129S6/SvEvTac mouse at 20 mg/kg, po; assay type: functional, organism-based; design: dose 20 mg/kg
Translocator protein = Translocator protein (Homo sapiens, UniProt P30536); assay: Binding affinity to benzodiazepine receptor by radioligand binding assay
Adrenergic receptor beta = Adrenergic receptor beta (Homo sapiens, UniProt P08588+P07550+P13945); assay: Binding affinity to beta adrenergic receptor by radioligand binding assay; assay type: protein assay
[29] = Ratio of drug level in brain against serum in Sprague-Dawley rat at 3 mg/kg, po or 1 mg/kg, iv after 1 hr; assay type: ADME, organism-based; settings: read-out: BBR
Mus musculus [30] = assay: Decrease in stress-induced hyperthermia in 129S6/SvEvTac mouse at 20 mg/kg, po; assay type: functional, organism-based; design: dose 20 mg/kg
[31] = molecular target: 5-hydroxytryptamine receptor 2C (Homo sapiens, UniProt P28335); assay: Binding affinity to human 5HT2C receptor by radioligand binding assay
[32] = Cmax in Beagle dog at 3 mg/kg, po; assay type: ADME, organism-based, Canis lupus familiaris; design: dose 3 mg/kg, route oral; settings: in vivo
[33] = Cmax in Sprague-Dawley rat at 3 mg/kg, po; assay type: ADME, organism-based; design: dose 3 mg/kg, route oral; settings: in vivo
[34] = Oral bioavailability in Beagle dog at 3 mg/kg, po and 1 mg/kg, iv; assay type: ADME, organism-based, Canis lupus familiaris; settings: in vivo
Cholecystokinin receptor = Cholecystokinin receptor (Homo sapiens, UniProt P32239+P32238); assay: Binding affinity to cholecystokinin receptor by radioligand binding assay; assay type: protein assay
[35] = Half life in Sprague-Dawley rat at 3 mg/kg, po; assay type: ADME, organism-based; design: dose 3 mg/kg, route oral; settings: in vivo
[36] = Binding affinity to neuropeptide receptor by radioligand binding assay
[37] = Binding affinity to chloride channel by radioligand binding assay

Translocator protein, sequence (P30536 whole entry): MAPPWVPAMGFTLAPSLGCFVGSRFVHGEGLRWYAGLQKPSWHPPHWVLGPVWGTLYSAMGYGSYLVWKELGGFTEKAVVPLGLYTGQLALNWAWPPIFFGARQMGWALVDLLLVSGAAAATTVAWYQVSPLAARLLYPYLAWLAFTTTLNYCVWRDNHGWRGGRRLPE
5-hydroxytryptamine receptor 6, sequence (P50406 whole entry): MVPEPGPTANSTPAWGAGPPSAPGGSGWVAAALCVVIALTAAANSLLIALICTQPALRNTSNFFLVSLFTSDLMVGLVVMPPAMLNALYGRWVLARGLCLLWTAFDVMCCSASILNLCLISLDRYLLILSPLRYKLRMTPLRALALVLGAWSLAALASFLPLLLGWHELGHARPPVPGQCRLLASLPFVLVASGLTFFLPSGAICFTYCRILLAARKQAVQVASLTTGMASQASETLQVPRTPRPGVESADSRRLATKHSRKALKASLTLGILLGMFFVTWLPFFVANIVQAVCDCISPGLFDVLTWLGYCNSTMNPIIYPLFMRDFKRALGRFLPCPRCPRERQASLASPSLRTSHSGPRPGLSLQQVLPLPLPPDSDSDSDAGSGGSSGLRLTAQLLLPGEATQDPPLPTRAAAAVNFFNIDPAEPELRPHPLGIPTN
5-hydroxytryptamine receptor 7, sequence (P34969 whole entry): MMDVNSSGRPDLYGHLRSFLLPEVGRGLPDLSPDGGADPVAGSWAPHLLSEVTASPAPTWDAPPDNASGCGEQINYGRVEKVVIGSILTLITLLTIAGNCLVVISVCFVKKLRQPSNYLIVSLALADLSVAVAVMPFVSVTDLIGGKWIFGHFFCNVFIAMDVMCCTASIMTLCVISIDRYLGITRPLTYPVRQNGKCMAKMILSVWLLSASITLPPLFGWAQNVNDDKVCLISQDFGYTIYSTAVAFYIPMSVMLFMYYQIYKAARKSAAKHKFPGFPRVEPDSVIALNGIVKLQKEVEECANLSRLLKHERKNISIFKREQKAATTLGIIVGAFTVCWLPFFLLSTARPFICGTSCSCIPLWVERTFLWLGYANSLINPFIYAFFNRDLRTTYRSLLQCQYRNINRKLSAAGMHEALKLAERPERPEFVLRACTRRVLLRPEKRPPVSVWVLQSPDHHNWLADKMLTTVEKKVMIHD
Cytochrome P450 3A4, sequence (P08684 whole entry): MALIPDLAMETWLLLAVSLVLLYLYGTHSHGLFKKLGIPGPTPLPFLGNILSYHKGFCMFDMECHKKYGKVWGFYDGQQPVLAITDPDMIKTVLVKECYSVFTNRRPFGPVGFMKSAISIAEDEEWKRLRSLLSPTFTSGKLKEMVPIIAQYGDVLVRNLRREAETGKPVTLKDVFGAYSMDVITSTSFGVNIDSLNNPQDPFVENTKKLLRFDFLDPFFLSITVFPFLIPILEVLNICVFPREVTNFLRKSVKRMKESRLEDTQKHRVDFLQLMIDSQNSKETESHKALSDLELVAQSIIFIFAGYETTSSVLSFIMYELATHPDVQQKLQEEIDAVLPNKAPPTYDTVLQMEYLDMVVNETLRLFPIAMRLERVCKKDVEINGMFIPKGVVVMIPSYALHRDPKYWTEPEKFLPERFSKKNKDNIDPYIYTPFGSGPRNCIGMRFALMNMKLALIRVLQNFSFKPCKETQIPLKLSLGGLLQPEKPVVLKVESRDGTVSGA
Cytochrome P450 1A2, sequence (P05177 whole entry): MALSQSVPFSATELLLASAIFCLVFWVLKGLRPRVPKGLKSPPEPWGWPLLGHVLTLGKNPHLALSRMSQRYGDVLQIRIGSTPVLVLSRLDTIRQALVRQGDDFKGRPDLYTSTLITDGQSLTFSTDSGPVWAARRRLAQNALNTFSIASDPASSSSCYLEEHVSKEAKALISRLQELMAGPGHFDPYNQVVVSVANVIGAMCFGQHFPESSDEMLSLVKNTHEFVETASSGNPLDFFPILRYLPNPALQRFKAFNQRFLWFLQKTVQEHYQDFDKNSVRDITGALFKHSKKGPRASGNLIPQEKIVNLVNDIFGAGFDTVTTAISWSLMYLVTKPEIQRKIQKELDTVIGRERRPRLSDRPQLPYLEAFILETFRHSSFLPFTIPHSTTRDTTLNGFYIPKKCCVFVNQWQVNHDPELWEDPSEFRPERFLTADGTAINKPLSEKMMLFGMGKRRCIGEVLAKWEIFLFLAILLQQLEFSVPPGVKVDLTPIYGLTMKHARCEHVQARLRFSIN
Cytochrome P450 2D6, sequence (P10635 whole entry): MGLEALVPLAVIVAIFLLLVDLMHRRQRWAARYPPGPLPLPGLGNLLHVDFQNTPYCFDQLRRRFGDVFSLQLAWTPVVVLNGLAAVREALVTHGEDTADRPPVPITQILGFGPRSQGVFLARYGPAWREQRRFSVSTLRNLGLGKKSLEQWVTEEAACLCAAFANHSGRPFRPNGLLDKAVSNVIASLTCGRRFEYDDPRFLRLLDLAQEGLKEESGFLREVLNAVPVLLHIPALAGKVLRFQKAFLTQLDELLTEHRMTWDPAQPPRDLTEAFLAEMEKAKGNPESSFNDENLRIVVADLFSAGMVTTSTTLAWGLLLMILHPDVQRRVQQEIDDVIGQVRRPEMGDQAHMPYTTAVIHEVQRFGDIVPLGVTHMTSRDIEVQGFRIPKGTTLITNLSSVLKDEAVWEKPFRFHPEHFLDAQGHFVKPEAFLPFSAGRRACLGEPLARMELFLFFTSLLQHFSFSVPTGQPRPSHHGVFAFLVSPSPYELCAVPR
5-hydroxytryptamine receptor 4, sequence (Q13639 whole entry): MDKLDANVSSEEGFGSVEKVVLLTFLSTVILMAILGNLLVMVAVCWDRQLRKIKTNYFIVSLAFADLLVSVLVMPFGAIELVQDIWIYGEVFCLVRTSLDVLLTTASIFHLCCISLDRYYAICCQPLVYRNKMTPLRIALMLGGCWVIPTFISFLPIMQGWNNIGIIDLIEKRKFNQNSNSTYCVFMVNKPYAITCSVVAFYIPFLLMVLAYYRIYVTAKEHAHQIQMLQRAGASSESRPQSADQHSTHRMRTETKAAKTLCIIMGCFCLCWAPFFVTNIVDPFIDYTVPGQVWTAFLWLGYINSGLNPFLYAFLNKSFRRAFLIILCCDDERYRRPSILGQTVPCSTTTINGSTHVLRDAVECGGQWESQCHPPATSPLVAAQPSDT
Nociceptin receptor, sequence (P41146 whole entry): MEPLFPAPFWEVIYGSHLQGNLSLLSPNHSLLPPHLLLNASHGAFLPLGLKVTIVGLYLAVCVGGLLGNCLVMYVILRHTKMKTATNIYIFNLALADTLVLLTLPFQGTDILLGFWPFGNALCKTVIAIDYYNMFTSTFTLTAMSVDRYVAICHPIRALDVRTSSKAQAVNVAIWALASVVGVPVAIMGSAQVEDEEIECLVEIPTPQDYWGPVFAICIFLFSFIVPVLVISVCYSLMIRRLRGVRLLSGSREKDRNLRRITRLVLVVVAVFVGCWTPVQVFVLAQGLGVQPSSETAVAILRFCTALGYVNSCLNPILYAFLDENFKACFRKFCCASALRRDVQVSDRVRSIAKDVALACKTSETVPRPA
5-hydroxytryptamine receptor 1A, sequence (P19327 whole entry): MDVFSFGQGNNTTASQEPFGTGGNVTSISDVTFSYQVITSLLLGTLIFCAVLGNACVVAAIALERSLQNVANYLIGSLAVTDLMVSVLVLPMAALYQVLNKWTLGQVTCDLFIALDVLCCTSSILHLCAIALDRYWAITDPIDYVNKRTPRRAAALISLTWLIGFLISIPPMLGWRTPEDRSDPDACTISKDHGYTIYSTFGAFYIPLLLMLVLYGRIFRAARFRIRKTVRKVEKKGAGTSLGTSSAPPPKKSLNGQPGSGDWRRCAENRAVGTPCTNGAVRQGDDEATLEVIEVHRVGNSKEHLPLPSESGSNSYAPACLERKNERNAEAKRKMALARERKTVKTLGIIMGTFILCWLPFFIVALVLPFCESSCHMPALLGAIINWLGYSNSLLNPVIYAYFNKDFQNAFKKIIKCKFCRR
5-hydroxytryptamine receptor 1B, sequence (P28564 whole entry): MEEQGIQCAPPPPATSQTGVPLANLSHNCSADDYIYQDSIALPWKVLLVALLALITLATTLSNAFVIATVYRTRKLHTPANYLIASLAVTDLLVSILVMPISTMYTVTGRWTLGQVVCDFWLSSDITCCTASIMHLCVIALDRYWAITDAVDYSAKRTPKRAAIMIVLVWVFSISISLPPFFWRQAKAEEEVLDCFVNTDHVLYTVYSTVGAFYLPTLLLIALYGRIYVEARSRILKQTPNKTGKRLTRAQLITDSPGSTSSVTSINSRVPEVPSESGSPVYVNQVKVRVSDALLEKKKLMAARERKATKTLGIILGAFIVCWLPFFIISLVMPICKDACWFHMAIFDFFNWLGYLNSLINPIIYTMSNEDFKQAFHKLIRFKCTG
5-hydroxytryptamine receptor 2B, sequence (P41595 whole entry): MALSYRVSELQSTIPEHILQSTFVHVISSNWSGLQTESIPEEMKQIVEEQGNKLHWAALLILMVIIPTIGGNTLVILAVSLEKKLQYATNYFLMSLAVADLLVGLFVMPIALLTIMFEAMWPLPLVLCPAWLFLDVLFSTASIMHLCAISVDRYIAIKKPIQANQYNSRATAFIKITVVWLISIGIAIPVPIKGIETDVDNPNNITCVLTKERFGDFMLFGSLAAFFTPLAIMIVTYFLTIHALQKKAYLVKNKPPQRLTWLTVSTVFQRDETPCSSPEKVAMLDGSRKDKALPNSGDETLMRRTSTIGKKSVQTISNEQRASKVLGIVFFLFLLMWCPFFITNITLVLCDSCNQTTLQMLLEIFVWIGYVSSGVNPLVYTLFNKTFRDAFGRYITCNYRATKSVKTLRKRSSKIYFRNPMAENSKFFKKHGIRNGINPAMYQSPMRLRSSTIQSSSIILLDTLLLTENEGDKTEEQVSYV

Work on CC(=O)Nc1cccc(N2CCN(CCCCNS(=O)(=O)CC3CCCCC3)CC2)c1 [NALUZOTAN] yielded a Ki [1] of over 2000 nM, a Ki [2] of over 5 µM and a half-life [3] of 66 min. For the same compound, the Activity (Homo sapiens) was “Active”, the half-life at 5 µM [4] was 65 min and the Ki [5] was over 2000 nM. For the same compound, the Ki [6] was over 2 µM, the Ki (Nociceptin receptor) was over 2000 nM and the Ki [7] was over 2 µM. The bioavailability [8] was 11%, the Ki [9] was over 2000 nM and the Ki [10] was over 5 µM. The Ki [11] was over 2000 nM, the Ki [12] was over 2000 nM and the Ki [13] was over 2000 nM. For the same compound, the IC50 [14] was 3.8 µM, the Ki [15] was 700 nM and the MTD [16] was 300 mg/kg. It also gave a fraction unbound at 2 µM [17] of 0.08, a Ki [18] of over 2000 nM and an MTD [19] of 600 mg/kg. The Ki [20] was over 5 µM, the half-life [21] was over 600 min and the Inhibition (Cytochrome P450 1A2) was “Not Active”. The Ki [22] was over 2000 nM, the Ki [23] was over 2000 nM and the inhibition at 1 µM (hERG (KCNH2)) was 21%. The Ki [24] was 17 nM, the Activity [25] was 0% and the Inhibition (Cytochrome P450 3A4) was “Not Active”. The Ki [26] was over 2000 nM, the Ki (Angiotensin II receptor) was over 2 µM and the Ki [27] was over 2000 nM. The Inhibition (Cytochrome P450 2C9) was “Not Active”, the Inhibition (Cytochrome P450 2D6) was “Not Active” and the Activity (Mus musculus [28]) was “Active”. It also gave a Ki (Translocator protein) of over 2000 nM, a Ki (Adrenergic receptor beta) of over 2 µM and a Kp at 1 h [29] of 0.5. For the same compound, the Activity (Mus musculus [30]) was “Active”, the Ki [31] was over 5 µM and the Cmax [32] was 174 ng/mL. For the same compound, the Cmax [33] was 24 ng/mL, the bioavailability [34] was 16% and the Ki (Cholecystokinin receptor) was over 2 µM. For the same compound, the half-life [35] was 120 min, the Ki [36] was over 2000 nM and the Ki [37] was over 10 µM.

— ChEMBL document CHEMBL1147799, “An integrated in silico 3D model-driven discovery of a novel, potent, and selective amidosulfonamide 5-HT1A agonist (PRX-00023) for the treatment of anxiety and depression” (J Med Chem, 2006)
